Tests used:
Format in all cases: cell-based, human
aSHF progenitors [1] = experiment: BMP pathway agonist/antagonist treatment of day 5 aSHF progenitors, RT-qPCR 24 hours after treatment; conditions: for expression of genes indicative of aSHF (FGF8 and ISL1), pSHF (HOXB1) and FHF (HAND1) fates in the aSHF population: 10 ng/mL BMP4 or 0.1 μM LDN, ROH added, 24 hours after treatment (FIG. 5C)
Experimental: (§1) RNA extraction was performed using the RNAqueous-micro Kit (Invitrogen). Purified RNA was treated with RNase-free DNase (Invitrogen), and then reverse transcribed into cDNA using oligo (dT) primers and random hexamers and iscript Reverse Transcriptase (ThermoFisher). QRT-PCR was performed on an EP Real-Plex MasterCycler (Eppendorf) using QuantiFast SYBR Green PCR kit (QIAGEN). The copy number of each gene was determined based on a standard curve plotted with human genome DNA with known copy number. The relative expression levels of genes were obtained by normalizing their copy number to that of TBP.
(§2) The above observation that the aSHF progenitors express genes involved in Bmp signaling is consistent with the known role of this pathway in the development of right ventricular cardiomyocytes from aSHF progenitors in the mouse. […] The notable exception is the genes for the ligands BMP2 and BMP4, which are also highly expressed in the FHF lineage (FIG. 5B). To determine if BMP plays a role in the differentiation of the aSHF progenitors to derivative lineages, the day 5 cells were treated with either a pathway agonist (10 ng/mL BMP4) or antagonist (0.1 μM LDN) and then the population was analyzed 24 hours after the treatments. FHF and pSHF progenitors were included in the analyses, and ROH was added to the cultures of pSHF and aSHF progenitor, given that both populations display ALDH activity. […] Inhibition of the pathway did, however, lead to upregulation of genes associated with pharyngeal progenitors (FOXC2 and SIX1) (FIG. 5D) and downregulation of those indicative of cardiomyocyte development (UNC45B and GATA4) (FIG. 5E). To further investigate the consequences of BMP manipulation, the agonist/antagonist treatment was extended for an additional 48 hours and then the treated cells were cultured for 12 days to promote cardiomyocyte development. FHF and pSHF progenitors also were cultured for 20 days without manipulation of BMP signaling. All 3 progenitor populations generated TNNT2^+/SIRPa^+ cardiomyocytes by day 20 of differentiation (FIGS. 5F and 5G). In addition to the cardiomyocytes, the aSHF-derived population also contained PDGFR-beta^+ mesenchymal cells (FIG. 5F).

aSHF progenitors [2] = experiment: Extended BMP agonist/antagonist treatment of aSHF progenitors, day 20 flow cytometry and cell numbers; conditions: treatment extended additional 48 hours, then cultured 12 days; day 20 (FIGS. 5F and 5H)
Experimental: Cells of early stages (day 3 to day 6) were dissociated with TrypLE for 3-5 minutes at room temperature to single cells, which were then filtered and transferred to IMDM media. Day 20 EBs were dissociated with 0.5 mg/ml collagenase type 2 (Worthington) in HANKs buffer for 1.5 hours at 37° C. The filtered day 20 cells were then transferred to FACS buffer consisting of PBS with 5% fetal calf serum (Wisent) and 0.02% sodium azide. The following antibodies were used for staining samples obtained from various stages of differentiation: anti-PDGFRa-PE (R&D Systems, 1:20), anti-CD235a/b-APC (BD PharMingen, 1:200), anti-SIRPa-PeCy7 (Biolegend, 1:2000), anti-CXCR4 (Biolegend, 1:100), anti-CDId-PE (Biolegend, 1:100), anti-CD49c-PE (ThermoFisher, 1:100), anti-cardiac isoform of CTNT (ThermoFisher Scientific, 1:2000), or anti-myosin light chain 2 (Abcam, 1:1000). For unconjugated primary antibodies, the following secondary antibodies were used for detection: goat anti-mouse IgG-APC (BD Pharmigen, 1:250), or donkey anti-rabbit IgG-PE (Jackson ImmunoResearch, 1:250). Detailed antibody information is described in Table 2.
To stain live cells with cell-surface protein, dissociated single cells were stained for 15 minutes at room temperature in FACS buffer and washed twice before they were subject to further analyses. For intracellular staining, cells were fixed for 15 min at 4° C. in PBS containing 4% PFA followed by permeabilization using 90% methanol for 15 min at 4° C. The permeabilized cells were washed with PBS containing 0.5% BSA (Sigma) twice and stained with unconjugated primary antibodies in FACS buffer for 18 hours at 4° C. Stained cells were washed with PBS with 0.5% BSA and stained with proper secondary antibodies in FACS buffer for 30 mins at 4° C. Following washing steps, stained cells were processed with the Fortessa (BD) and analyzed using FlowJo software (Tree Star). For cell sorting, stained cells were kept in StemPro-34 media and sorted using Influx (BD), FACSAriall (BD), MoFlo-XDP (BD) and FACSAria Fusion (BD). Data were analyzed using FlowJo software (Tree Star).
as §2, with “All 3 progenitor populations generated TNNT2^+/SIRPa^+ cardiomyocytes by day 20 of differentiation (FIGS. 5F and 5G). In addition to the cardiomyocytes, the aSHF-derived population also contained PDGFR-beta^+ mesenchymal cells (FIG. 5F).” left out

aSHF cells = experiment: Extended BMP agonist/antagonist treatment of aSHF cells, day 20 RT-qPCR; conditions: aSHF cells treated with LDN
Experimental: as §1
The above observation that the aSHF progenitors express genes involved in Bmp signaling is consistent with the known role of this pathway in the development of right ventricular cardiomyocytes from aSHF progenitors in the mouse. […] The notable exception is the genes for the ligands BMP2 and BMP4, which are also highly expressed in the FHF lineage (FIG. 5B). To determine if BMP plays a role in the differentiation of the aSHF progenitors to derivative lineages, the day 5 cells were treated with either a pathway agonist (10 ng/mL BMP4) or antagonist (0.1 μM LDN) and then the population was analyzed 24 hours after the treatments. […]

[3] = tested on: day 4 pSHF cells (ALDH CXCR4−); experiment: Retinol treatment of isolated day 4 pSHF cells, RT-qPCR of progenitor markers; conditions: retinol 2 μM vs DMSO, 24 hours
Experimental: (§3) At day 1, the EBs were transferred to mesoderm induction media consisting of base media, 5 ng/mL rhbFGF (R&D), and various concentration of rhBMP4 (R&D) and rhActivinA (R&D) as described in the results section. At day 3, the EBs were transferred to the media consisting of base media, 2 μM Wnt inhibitor IWP2 (TOCRIS) and 10 ng/ml rhVEGF (R&D). From day 5 to day 12, the EBs were transferred to base media with 5 ng/mL rhVEGF. From day 12 to day 20, the EBs were transferred to base media and cultured in a normoxic environment (5% CO2, 20% O2). For pSHF lineage differentiation, the day 4 sorted pSHF cells were treated with 2 μM Retinol (Sigma) from day 4 to day 8. Similarly, the sorted aSHF cells were treated with 2 μM Retinol and 10 ng/mL rhBMP4 from day 5 to day 8 of differentiation.
as §1, with “TBP. […]” for “TBP.”

day 5 aSHF cells = experiment: Retinol treatment of day 5 aSHF cells, RT-qPCR of RA-responsive genes; conditions: ROH for 24 hours vs DMSO, RT-qPCR day 6 (FIG. 4J)
Experimental: as §3, with “Similarly, the sorted aSHF cells were treated with 2 μM Retinol and 10 ng/mL rhBMP4 from day 5 to day 8 of differentiation.” left out
RNA extraction was performed using the RNAqueous-micro Kit (Invitrogen). […] QRT-PCR was performed on an EP Real-Plex MasterCycler (Eppendorf) using QuantiFast SYBR Green PCR kit (QIAGEN). The copy number of each gene was determined based on a standard curve plotted with human genome DNA with known copy number. […]
The pSHF lineage expressed ALDH1A2 and RDH10, from the day 3 mesoderm stage onward, whereas expression of these genes was not detected until day 4 of differentiation in the aSHF lineage (FIG. 4G). These patterns correlate well with ALDH activity, which was detected in more than 90% of the days 4 and 5 pSHF cells. […] ALDH was not detected in the day 5 FHF population. […]

Molecule | expression of genes indicative of aSHF (FGF8 and ISL1), pSHF (HOXB1) and FHF (HAND1) fates in the aSHF population (aSHF progenitors [1]) | expression of genes associated with pharyngeal progenitors (FOXC2 and SIX1) (aSHF progenitors [1]; 0.1 μM LDN, 24 hours after treatment (FIG. 5D)) | expression of genes indicative of cardiomyocyte development (UNC45B and GATA4) (aSHF progenitors [1]; 0.1 μM LDN, 24 hours after treatment (FIG. 5E)) | PDGFR-beta+ cells in the aSHF-derived population (number / size of fraction) (aSHF progenitors [2]) | proportion of cardiomyocytes in the aSHF-derived population (aSHF progenitors [2]) | expression of the ventricular cardiomyocyte markers IRX4 and MY1.2 (aSHF cells) | levels of PDGFRB (aSHF cells) | expression of the RA responsive gene CYP26A1 and the pSHF progenitor markers HOXA1 and HOXB1 ([3]; RT-qPCR (FIG. 3H)) | expression of aSHF progenitor markers FGF10, FOXC1 and FOXC2 ([3]; RT-qPCR (FIG. 3I)) | expression of the RA-responsive gene CYP26A1 and HOXB1 (day 5 aSHF cells) | number of cardiomyocytes in the aSHF-derived population (aSHF progenitors [2])
c1ccc2c(-c3cnn4cc(-c5ccc(N6CCNCC6)cc5)cnc34)ccnc2c1 [LDN, LDN 193189] | did not alter | upregulation | downregulation | increased | reduced | decrease | elevated | – | – | – | –
CC1=C(/C=C/C(C)=C/C=C/C(C)=C/CO)C(C)(C)CCC1 [ROH, Retinol] | – | – | – | – | – | – | – | upregulation | downregulated | upregulation | –
BMP4: Recombinant human BMP4 (R&D), BMP pathway agonist (protein, UniProt P12644 293-408, looked up) Bone morphogenetic protein 4: SPKHHSQRARKKNKNCRRHSLYVDFSDVGWNDWIVAPPGYQAFYCHGDCPFPLADHLNSTNHAIVQTLVNSVNSSIPKACCVPTELSAISMLYLDEYDKVVLKNYQEMVVEGCGCR | did not alter | – | – | reducing | increased | – | – | – | – | – | increased

— patent publication US20250320458A1, “CARDIOMYOCYTE SUBTYPES AND METHODS OF MAKING AND USING” (University Health Network, priority 2021, published 2025)
